The nature of this data set: solvent given as SMILES.
Setting [1] is: in c1cc(-n2c3ccccc3c3ccccc32)cc(-n2c3ccccc3c3ccccc32)c1.

Where “and” joins values, the source holds several entries; their conditions need not be identical. Equal values may be shown once.

In turn, `COc1cc2c(cc1-c1ccc([N+](=O)[O-])cc1)Cc1c3c(c4c(c1-2)-c1cc(OC)c(-c2ccc([N+](=O)[O-])cc2)cc1C4)C(=O)N(CCC(C)C)C3=O` had a fluorescence lifetime (in C1CCOC1) of 1.43 ns.
`COc1ccc(C2=C(c3ccc(C)cc3)C(c3ccccc3)=[N+]3C2=Nc2c(-c4ccc(OC)cc4)c(-c4ccc(C)cc4)c(-c4ccccc4)n2[B-]3(F)F)cc1` registered a fluorescence lifetime (in Cc1ccccc1) of 0.23 ns.
Under “in ClC(Cl)Cl”, `CCCCCCCCCCCCOc1cc2c3c(ccc4c5c(SCCCCCCCCCCCC)cc6c7c(ccc(c1c34)c75)C(=O)N(C1CCCCC1)C6=O)C(=O)N(C1CCCCC1)C2=O` registered a fluorescence lifetime of 7.8 ns.
For `CCn1c2ccccc2c2c3nsnc3c3c4ccccc4n(CC)c3c21`, the fluorescence lifetime runs as follows: (in CN(C)C=O) 1.07 ns; (in Cc1ccccc1) 0.97 ns; (in ClCCl) 1 ns.
For the setting “in CCOC(C)=O”, `OCc1cc2c(cc3ccc4cccc5ccc2c3c45)[nH]1` gave a fluorescence lifetime of 2.64 ns.
For the compound `CN(C)c1ccc(/C=C/c2nc3c4ccccc4c4ccccc4c3[nH]2)cc1`, the fluorescence lifetime was 0.341 ns (in C1CCOC1); 0.484 ns (in C1COCCO1); 0.471 ns (in CC1CCCCC1); 0.356 ns (in CC#N); 0.325 ns (in CCOC(C)=O); 0.391 ns (in CCOCC). In addition, the fluorescence lifetime is, setting by setting: (in CN(C)C=O) 0.37 ns; (in COC(C)=O) 0.308 ns; (in CS(C)=O) 0.384 ns; (in Cc1ccccc1) 0.306 ns; (in ClC(Cl)Cl) 0.138 ns.
For `CC1=CC(C)=[N+]2C1=C(c1ccc(I)cc1)c1c(C)cc(C)n1[B-]21OCCO1`, the fluorescence lifetime (in ClC(Cl)Cl) stood at 0.93 ns.
`CC(C)(C)c1ccc2c(c1)-c1c3c(c4c5c1-c1cc(C(C)(C)C)ccc1OB5Oc1ccc(C(C)(C)C)cc1-4)-c1cc(C(C)(C)C)ccc1OB3O2` gave a fluorescence lifetime (in ClCCl) of 3.96 ns.
Consider `CC(=O)Nc1cc2ccc3cccc4ccc(c1)c2c34`, for which, where the note is “in CCCCCCC”, the fluorescence lifetime is 108 ns.
Turning to `CN(C)c1c2ccccc2cc2ccccc12`, the fluorescence lifetime runs as follows: (in C1CCCCC1) 4.3 ns; (in C1CCOC1) 5.3 ns; (in C1COCCO1) 0.8 ns; (in CC#N) 3.9 ns; (in CCO) 5.1 ns; (in CN(C)C=O) 6.5 ns. In addition, the fluorescence lifetime is, setting by setting: (in CO) 4 ns; (in COCCOC) 4.8 ns; (in CS(C)=O) 8.2 ns; (in O) 5.7 ns; (in OCC(O)CO) 8.9 ns; (in OCCO) 7 ns.
On to `CC1(C)c2ccccc2N(c2ccc(S(=O)(=O)c3ccc(N4c5ccccc5C(C)(C)c5ccccc54)cc3)cc2)c2ccccc21`, for which the fluorescence lifetime worked out at 21 ns (in C1COCCO1); 20 ns (in CC(C)=O); 20 ns (in Cc1ccccc1); 21 ns (in ClC(Cl)Cl); 21 ns under setting [1].
On to `Cc1cc2nc3c(=O)n(C)c(=O)nc-3n(C)c2cc1C`, for which the fluorescence lifetime (in CC#N) is 7.1 ns and 6.9 ns.
`CCC1(CC)c2ccccc2-c2c1c1c(c3c2C(CC)(CC)c2cc(N(c4ccccc4)c4ccccc4)ccc2-3)C(CC)(CC)c2ccccc2-1`: where the note is “in C1CCOC1”, the fluorescence lifetime is 1.6 ns.
For the compound `Cc1cc(=O)oc2cc(/[NH+]=C/C=C3/C=C(C(=O)O)NC(C(=O)O)C3)ccc12` (stereo not given), under “in O”, the fluorescence lifetime amounted to 0.038 ns.
In the case of `CCn1c2ccccc2c2cc(-c3cc(-c4ccc5c(c4)c4ccccc4n5CC)ncn3)ccc21`, the fluorescence lifetime (in C1CCOC1) is 1.86 ns.
Turning to `CCNc1cc2oc3c/c(=[NH+]\CC)c(C)cc-3c(-c3ccccc3C(=O)OCC)c2cc1C`, the fluorescence lifetime was 4.18 ns (in CC#N); 3.96 ns (in CC(C)O); 3.83 ns (in CCCCCCCCO); 3.88 ns (in CCCCCCO); 3.89 ns (in CCCCO); 3.95 ns (in CCCO). Besides, the fluorescence lifetime by setting is: (in CCO) 3.96 ns; (in CN(C)C=O) 3.86 ns; (in CO) 3.7 ns; (in O) 4.22 ns; (in [2H]O[2H]) 4.36 ns.
`c1ccc(-c2nc(-c3ccccc3)nc(-c3ccc(-n4c5ccccc5c5cc(-n6c7ccccc7c7ccccc76)ccc54)cc3)n2)cc1` registered a fluorescence lifetime (in Cc1ccccc1) of 6.5 ns.
Take `c1ccc2c(c1)c1ccccc1n2-c1ccc2cc(-c3ccc(-c4ccc(-c5cc6ccc(-n7c8ccccc8c8ccccc87)cc6o5)cc4)cc3)oc2c1`: the fluorescence lifetime reads like this: (in Cc1ccccc1) 0.97 ns; (in c1ccc2c(c1)c1ccccc1n2-c1ccc(-c2ccc(-n3c4ccccc4c4ccccc43)cc2)cc1) 1.5 ns.
Take `CC(=O)N(Cc1ccccn1)c1c2ccccc2c2c3c(cccc13)C(=O)N(Cc1ccccn1)C2=O`: the fluorescence lifetime (in CCO) was 1.66 ns.
For the compound `c1ccc(-c2cc3cccc[n+]3[b-]3ccc(-c4cc[b-]5c(c4)c(-c4ccccc4)cc4cccc[n+]54)cc32)cc1`, the fluorescence lifetime (in C1CCCCC1) was determined as 4 ns.
Take `COC(=O)C(Cc1ccc2oc(-c3ccc(-n4c5ccccc5c5ccccc54)cc3)nc2c1)NC(=O)OC(C)(C)C` (stereo not given): the fluorescence lifetime is, setting by setting: (in C1CCCCC1) 1.37 ns; (in C1CCOC1) 3.32 ns; (in C1COCCO1) 2.49 ns; (in CC1CCCO1) 2.78 ns; (in CC#N) 5.02 ns; (in CC(C)(C)O) 4.03 ns. Further, the fluorescence lifetime by setting is: (in CC(C)=O) 4.28 ns; (in CC(C)CC(C)(C)C) 1.3 ns; (in CC(C)O) 4.49 ns; (in CC(O)CO) 5.74 ns; (in CCCCCCCO) 4 ns; (in CCCCCCO) 4.11 ns. The fluorescence lifetime runs as follows: (in CCCCCO) 3.36 ns; (in CCCCO) 4.52 ns; (in CCO) 5.3 ns; (in CCOC(C)=O) 3.08 ns; (in CCOCC) 2.8 ns; (in CN(C)C=O) 4.97 ns. In addition, the fluorescence lifetime amounted to 5.34 ns (in CO), 5.45 ns (in CS(C)=O), 1.84 ns (in Cc1ccccc1) and 6.17 ns (in OCCO).
Compound `COc1ccc2cc(/C=C/C3=CC(c4ccccc4)=[O+][B-](F)(F)O3)ccc2c1` gave a fluorescence lifetime (in ClCCl) of 2.53 ns.
For the compound `CN1CCN(CCCN2c3ccccc3Sc3ccc(Cl)cc32)CC1`, the fluorescence lifetime runs as follows: (in CC#N) 0.91 ns; (in CO) 0.89 ns.
For the setting “in Cc1ccccc1”, `N#Cc1c(-n2c3ccc(I)cc3c3cc(I)ccc32)c(-n2c3ccc(I)cc3c3cc(I)ccc32)c(C#N)c(-n2c3ccc(I)cc3c3cc(I)ccc32)c1-n1c2ccc(I)cc2c2cc(I)ccc21` gave a fluorescence lifetime of 0.1 ns.
The compound `Nc1cccc2c1-c1ccccc1C2=O` displayed a fluorescence lifetime (in C1CCCCC1) of 3.2 ns, a fluorescence lifetime (in CC#N) of 4.2 ns and a fluorescence lifetime (in c1ccccc1) of 9.3 ns.
Consider `COc1ccc(-c2nc(/C(C#N)=C/c3ccc(C#N)cc3)sc2-c2ccc(OC)cc2)cc1`, for which the fluorescence lifetime (in CC#N) worked out at 2.9 ns.
`CCN(CC)c1ccc2cc(-c3ccc(-c4ccc(-c5cc6ccccc6oc5=O)cc4)cc3)c(=O)oc2c1` registered a fluorescence lifetime (in ClCCl) of 9.88 ns.
Under “in CO”, `CC1(C)C(/C=C/C2=C(Oc3ccc(CCN=C=S)cc3I)C(=C/C=C3/N(CCCS(=O)(=O)[O-])c4ccccc4C3(C)C)/CCC2)=[N+](CCCS(=O)(=O)[O-])c2ccccc21` had a fluorescence lifetime of 0.947 ns.
Turning to `COc1ccc(-c2c3ccccc3c(-c3ccc(OC)cc3)c3ccccc23)cc1`, the fluorescence lifetime (in ClCCl) turned out to be 4.4 ns.
In the case of `CCN(CC)c1ccc2c(C(F)(F)F)cc(=O)oc2c1`, the fluorescence lifetime (in C1CCCCC1) was determined as 4.1 ns; the fluorescence lifetime (in CC#N) is 0.6 ns; the fluorescence lifetime (in CCO) worked out at 0.85 ns; the fluorescence lifetime (in CCOC(C)=O) came out at 4.6 ns; the fluorescence lifetime (in OCC(O)CO) stood at 2.7 ns.
For the compound `CC(C)(C)c1ccc2c(c1)c1cc(C(C)(C)C)ccc1n2-c1ccccc1-c1nccnc1C#N`, the fluorescence lifetime under setting [1] was determined as 9.7 ns.
For the compound `Cc1cc2cc3cc(C)c(C)cc3cc2cn1`, the fluorescence lifetime (in CCO) was found to be 18 ns.
Regarding `CCOC(=O)c1ccccc1-c1c2ccc(=O)cc-2oc2cc(OC(=O)[C@H](CSCc3ccc(C)cc3)NC(=O)OC(C)(C)C)ccc12`, the fluorescence lifetime runs as follows: (in C1CCOC1) 2.49 ns; (in CC#N) 2.97 ns; (in CCO) 3.29 ns; (in CS(C)=O) 4.06 ns.
Regarding `COC(=O)c1[nH]c(-c2ccc([N+](=O)[O-])cc2)c2nnc3ccc(OC)cc3c12`, the fluorescence lifetime (in ClCCl) turned out to be 2.44 ns.
For the setting “in O=P(c1ccccc1)(c1ccccc1)c1ccccc1Oc1ccccc1P(=O)(c1ccccc1)c1ccccc1”, `c1ccc(-c2nc(-c3ccccc3)nc(-c3ccc(-n4c5ccccc5c5c6c(ccc54)-c4ccccc4C6(c4ccccc4)c4ccccc4)cc3)n2)cc1` registered a fluorescence lifetime of 3.3 ns.
Turning to `COc1ccc(C(=O)NN2C3=C(CC4=C2CCCC4=O)C(=O)CCC3)cc1`, the fluorescence lifetime is, setting by setting: (in CC#N) 6.2 ns; (in CC(C)=O) 5.4 ns; (in CCCCCO) 6.1 ns; (in CO) 4.7 ns; (in ClC(Cl)Cl) 6.2 ns; (in ClCCl) 8.3 ns.
For `CN(C)CCCN1c2ccccc2CCc2ccccc21`, the fluorescence lifetime was 0.85 ns (in CC#N), 0.54 ns (in CO) and 1.12 ns (in O).
As for `F[B-]1(F)n2c(-c3ccccc3)cc(-c3ccccc3)c2N=C2C(c3ccccc3)=CC(c3ccccc3)=[N+]21`, the fluorescence lifetime (in CC#N) was 0.78 ns.
As for `c1ccc2c(-n3c4ccccc4c4ccccc43)cccc2c1`, the fluorescence lifetime is, setting by setting: (in C1CCCCC1) 4.9 ns; (in CCOC(C)=O) 4.9 ns; (in CO) 5.1 ns.
In the case of `CCn1c2ccccc2c2cc(C#Cc3cc(C#Cc4ccc5c(c4)c4ccccc4n5CC)nc(S(C)(=O)=O)n3)ccc21`, under “in C1CCOC1”, the fluorescence lifetime is 4.22 ns.
As to `COc1cc(OC)c2c(c1)C(=O)c1ccccc1-2`, the fluorescence lifetime (in C1CCCCC1) was determined as 5.8 ns and the fluorescence lifetime (in CC#N) stood at 0.9 ns.

The values are drawn from the Deep4Chem optical property database.
